Experimental data: ChEMBL document CHEMBL1126819, “Amino acid bioisosteres: design of 2-quinolone derivatives as glycine-site N-methyl-D-aspartate receptor antagonists” (Bioorg Med Chem Lett, 1993)

Assays:
Glutamate NMDA receptor = type: cell membranes, Rattus norvegicus, Membrane
Description: Displacement of [3H]L-689,560 from NMDA receptor glycine site of rat brain membranes

Rattus norvegicus = organism: Rattus norvegicus; experiment: Tested for ability to inhibit NMDA-induced depolarizations in rat cortical slices; type: functional
[1] = Dissociation constant pKa was determined; type: physicochemical

Compound | IC50 (Glutamate NMDA receptor) [nM] | Kb (Rattus norvegicus) [nM] | pKa [1]
O=C(c1ccccc1)c1c(O)nc2cc(Cl)ccc2c1O | 3200 | – | –
O=C1Nc2cc(Cl)ccc2CC1[N+](=O)[O-] (stereo not drawn) | 410 | 6700 | –
COC(=O)c1c(O)c2ccc(Cl)cc2[nH]c1=O | 6500 | – | –
O=[N+]([O-])c1cc([N+](=O)[O-])c2nc(O)c(O)nc2c1 | 170 | 1200 | 6.5
O=C(O)c1cc(O)c2c(Cl)cc(Cl)cc2n1 | 64 | 1900 | –
O=C(O)c1cc(O)c2ccc(Cl)cc2n1 [7-CHLOROKYNURENIC ACID] | – | 7000 | –
O=c1cc(O)c2ccc(Cl)cc2[nH]1 | > 300000 | – | –
Oc1nc2cc(Cl)cc(Cl)c2c(O)c1-c1ccccc1 | 97 | – | –
C[C@@H]1CN(O)C(=O)[C@@H]1N | 2700 | – | –
O=C(Nc1ccccc1)N[C@H]1C[C@H](C(=O)O)Nc2cc(Cl)cc(Cl)c21 | 4 | 110 | ~4
O=C(O)c1cc(O)c2c(I)cc(Cl)cc2n1 | 14 | 410 | –
Oc1nc2cc(Cl)ccc2c(O)c1C1CCCCC1 | ~100000 | – | –
CCc1cc(Cl)cc2nc(O)c(-c3ccccc3)c(O)c12 | 6.9 | – | –
O=c1[nH]c2cc(Cl)ccc2c(O)c1-c1ccccc1 | 170 | 880 | 5.4
